30 compounds from US9204653B2, “5-fluoro pyrimidine derivatives” (DOW AGROSCIENCES LLC, priority 2008, dated 2015) can be followed below.

The test system of the assay is Mycosphaerella graminicola; Anamorph: Septoria tritici; Bayer Code SEPTTR. Nature of the assay: Leaf blotch of wheat, foliar fungicide treatment, one day protectant (1DP) or three day curative (3DC). Type of assay: in vivo, Septoria tritici on wheat plants (variety Yuma). As to conditions: Zymoseptoria tritici; for pest or weed control at 50 ppm / pest or weed control at 200 ppm: % disease control rating.

Setting [1] is: 24 h, one day protectant, 25 ppm, rating of percent disease control, read-out: SETTTR 1DP 25 ppm.
Setting [2] is: 24 h, one day protectant, rating of percent disease control, read-out: SEPTTR 1DP 100 ppm.
Where [3] appears, read: 72 h, three day curative, 25 ppm, rating of percent disease control, read-out: SEPTTR 3DC 25 ppm.
[4] abbreviates: 72 h, three day curative, rating of percent disease control, read-out: SEPTTR 3DC 100 ppm.
The mark [5] stands for this setting: 24 h, one day protectant (1DP), 25 ppm, percent disease control rating, read-out: SETTTR 1DP 25 ppm.
[6] abbreviates: 24 h, one day protectant (1DP), percent disease control rating, read-out: SEPTTR 1DP 100 ppm.
Where [7] appears, read: 72 h, three day curative (3DC), 25 ppm, percent disease control rating, read-out: SEPTTR 3DC 25 ppm.
[8] abbreviates: 72 h, three day curative (3DC), percent disease control rating, read-out: SEPTTR 3DC 100 ppm.
Setting [9] is: 24 h, one day protectant (1DP), 25 ppm, rating of percent disease control, read-out: SETTTR 1DP 25 ppm.
[10] abbreviates: 24 h, one day protectant (1DP), rating of percent disease control, read-out: SEPTTR 1DP 100 ppm.
The mark [11] stands for this setting: 72 h, three day curative (3DC), 25 ppm, rating of percent disease control, read-out: SEPTTR 3DC 25 ppm.
[12] abbreviates: 72 h, three day curative (3DC), rating of percent disease control, read-out: SEPTTR 3DC 100 ppm.
Setting [13] is: 24 h, one day protectant (1DP), 25 ppm (first 1DP column), percent control rating, read-out: SETTTR 1DP 25 ppm.
The mark [14] stands for this setting: 24 h, one day protectant (1DP), 25 ppm as printed (second 1DP column), percent control rating, read-out: SETTTR 1DP 25 ppm.
The mark [15] stands for this setting: 72 h, three day curative (3DC), 25 ppm, percent control rating, read-out: SEPTTR 3DC 25 ppm.
Where [16] appears, read: 72 h, three day curative (3DC), percent control rating, read-out: SEPTTR 3DC 100 ppm.

Like-named read-outs stand apart in the source and are kept apart here.

Regarding `C=CCCOc1ncc(F)c(N)n1` [Compound 653], the pest or weed control at 25 ppm under setting [1] was 0 to 25% and the pest or weed control at 25 ppm under setting [3] fell in the range of 26 to 50%. Moreover, the pest or weed control at 100 ppm is 0 to 25% under setting [2] and 76 to 100% under setting [4].

With `Nc1nc(OCc2cccc(Br)c2)ncc1F` [Compound 2, 2-(3-Bromobenzyloxy)-5-fluoropyrimidin-4-ylamine], the pest or weed control at 25 ppm by setting is: under setting [5], 76 to 100%; under setting [7], 76 to 100%. The pest or weed control at 100 ppm is, setting by setting: under setting [6], 76 to 100%; under setting [8], 76 to 100%.

Consider `COc1ccccc1COc1ncc(F)c(NCc2ccccc2F)n1` [Compound 865], for which, for the setting “24 h, one day protectant”, the pest or weed control at 50 ppm lay within 26 to 50% and the pest or weed control at 200 ppm lay in the range of 76 to 100%.

As to `O=[N+]([O-])c1ccccc1SNc1nc(OCc2cc(F)c(F)c(F)c2)ncc1F` [Compound 525], the pest or weed control at 25 ppm reads like this: under setting [9], 76 to 100%; under setting [11], 76 to 100%. Further, the pest or weed control at 100 ppm under setting [10] was in the range of 76 to 100% and the pest or weed control at 100 ppm under setting [12] fell in the range of 76 to 100%.

As for `COC(=O)Oc1ncc(F)c(/N=C/N(C)C)n1` [Compound 517], the pest or weed control at 25 ppm reads like this: under setting [9], 76 to 100%; under setting [11], 76 to 100%. The pest or weed control at 100 ppm under setting [10] lay in the range of 76 to 100% and the pest or weed control at 100 ppm under setting [12] is 76 to 100%.

`CC(=O)OC[C@H]1O[C@@H](Oc2ncc(F)c(N)n2)[C@H](OC(C)=O)[C@@H](OC(C)=O)[C@@H]1OC(C)=O` [Compound 192]: the pest or weed control at 25 ppm is 76 to 100% under setting [9] and 51 to 75% under setting [11]. In addition, the pest or weed control at 100 ppm lay within 76 to 100% under setting [10] and 76 to 100% under setting [12].

Where the note is “24 h, one day protectant”, `Fc1ccccc1CNc1nc(OCc2ccncc2)ncc1F` [Compound 913] gave a pest or weed control at 50 ppm of 76 to 100% and a pest or weed control at 200 ppm of 76 to 100%.

Under “24 h, one day protectant”, `Fc1ccc(COc2ncc(F)c(NCCc3ccccc3)n2)cc1` [Compound 805] returned a pest or weed control at 50 ppm of 51 to 75% and a pest or weed control at 200 ppm of 76 to 100%.

Where the note is “24 h, one day protectant”, `Fc1cnc(OCCc2ccccc2)nc1NCc1ccc(Cl)nc1` [Compound 880] had a pest or weed control at 50 ppm of 0 to 25% and a pest or weed control at 200 ppm of 26 to 50%.

Regarding `Fc1ccccc1CNc1nc(OCc2ccccn2)ncc1F` [Compound 888], under “24 h, one day protectant”, the pest or weed control at 50 ppm was in the range of 0 to 25% and the pest or weed control at 200 ppm was 51 to 75%.

Take `C/C(=N\Oc1nc(OCc2ccccc2)ncc1F)c1cnc(OCC(F)(F)F)nc1` [Compound 990]: the pest or weed control at 25 ppm was in the range of 0 to 25% under setting [13], 0 to 25% under setting [14] and 0 to 25% under setting [15]. For the same compound, under setting [16], the pest or weed control at 100 ppm lay in the range of 0 to 25%.

As for `Fc1cnc(OCc2ccccc2)nc1NCOCc1ccccc1` [Compound 330], the pest or weed control at 25 ppm reads like this: under setting [9], 0 to 25%; under setting [11], 0 to 25%. The pest or weed control at 100 ppm reads like this: under setting [10], 76 to 100%; under setting [12], 26 to 50%.

Turning to `Cc1ccc(COc2ncc(F)c(NC(=O)Nc3ccccc3F)n2)cc1` [Compound 208], the pest or weed control at 25 ppm is 0 to 25% under setting [9] and 0 to 25% under setting [11]. Besides, the pest or weed control at 100 ppm was in the range of 0 to 25% under setting [10] and 26 to 50% under setting [12].

For `Fc1cnc(OCCc2ccccc2)nc1N1CCOCC1` [Compound 828], under “24 h, one day protectant”, the pest or weed control at 50 ppm fell in the range of 0 to 25% and the pest or weed control at 200 ppm lay within 0 to 25%.

In the case of `COc1cccc(COc2ncc(F)c(NCc3ccccc3F)n2)c1` [Compound 416], the pest or weed control at 25 ppm is 0 to 25% under setting [9] and 0 to 25% under setting [11]. Moreover, the pest or weed control at 100 ppm fell in the range of 0 to 25% under setting [10] and 26 to 50% under setting [12].

Take `CCS(=O)(=O)Nc1nc(OCc2ccc(C)cc2)ncc1F` [Compound 1006]: the pest or weed control at 25 ppm was 0 to 25% under setting [13], 0 to 25% under setting [14] and 0 to 25% under setting [15]. Besides, the pest or weed control at 100 ppm under setting [16] lay in the range of 0 to 25%.

On to `CCOC(=O)Nc1nc(OCc2ccccc2)ncc1F` [Compound 71], for which the pest or weed control at 25 ppm lay within 76 to 100% under setting [5] and 76 to 100% under setting [7]. Besides, the pest or weed control at 100 ppm is, setting by setting: under setting [6], 76 to 100%; under setting [8], 76 to 100%.

In the case of `COc1ncc(F)c(N/N=C/C2CC2)n1` [Compound 1022], the pest or weed control at 25 ppm under setting [13] was 0 to 25%, the pest or weed control at 25 ppm under setting [14] fell in the range of 0 to 25% and the pest or weed control at 25 ppm under setting [15] lay in the range of 0 to 25%. Moreover, under setting [16], the pest or weed control at 100 ppm lay within 26 to 50%.

For the setting “24 h, one day protectant”, `Nc1nc(OCC(F)(F)F)ncc1F` [Compound 864] yielded a pest or weed control at 50 ppm of 0 to 25% and a pest or weed control at 200 ppm of 26 to 50%.

In the case of `Fc1ccc(COc2ncc(F)c(NCc3cccs3)n2)cc1` [Compound 867], for the setting “24 h, one day protectant”, the pest or weed control at 50 ppm lay within 76 to 100% and the pest or weed control at 200 ppm lay within 76 to 100%.

Consider `CC(C)CCOc1ncc(F)c(N)n1` [Compound 731], for which the pest or weed control at 25 ppm by setting is: under setting [1], 0 to 25%; under setting [3], 0 to 25%. The pest or weed control at 100 ppm reads like this: under setting [2], 0 to 25%; under setting [4], 0 to 25%.

As for `NN(Cc1ccccc1)c1nc(O)ncc1F` [Compound 1093], the pest or weed control at 25 ppm reads like this: under setting [13], 0 to 25%; under setting [14], 0 to 25%; under setting [15], 0 to 25%. The pest or weed control at 100 ppm under setting [16] was 0 to 25%.

On to `CS(=O)(=O)Nc1nc(O)ncc1F` [Compound 1101], for which the pest or weed control at 25 ppm lay in the range of 0 to 25% under setting [13], 0 to 25% under setting [14] and 0 to 25% under setting [15]. Moreover, the pest or weed control at 100 ppm under setting [16] was 0 to 25%.

For the compound `C[C@H](Oc1ncc(F)c(N)n1)c1ccc(Br)cc1` [Compound 103], the pest or weed control at 25 ppm by setting is: under setting [5], 76 to 100%; under setting [7], 51 to 75%. Besides, the pest or weed control at 100 ppm under setting [6] was 76 to 100% and the pest or weed control at 100 ppm under setting [8] was 76 to 100%.

Under “24 h, one day protectant”, `Fc1cnc(OCc2ccc(Cl)cc2)nc1N1CCOCC1` [Compound 925] registered a pest or weed control at 50 ppm of 0 to 25% and a pest or weed control at 200 ppm of 0 to 25%.

On to `O=S(=O)(Nc1nc(OCc2cccs2)ncc1F)c1ccccc1` [Compound 1107], for which the pest or weed control at 25 ppm runs as follows: under setting [13], 0 to 25%; under setting [14], 0 to 25%; under setting [15], 0 to 25%. Further, the pest or weed control at 100 ppm under setting [16] was 0 to 25%.

Take `CCOCCOc1cccc(COc2ncc(F)c(NC)n2)c1` [Compound 375]: the pest or weed control at 25 ppm under setting [9] was 0 to 25% and the pest or weed control at 25 ppm under setting [11] fell in the range of 26 to 50%. Moreover, the pest or weed control at 100 ppm was 0 to 25% under setting [10] and 76 to 100% under setting [12].

In the case of `COCCOC(=O)Nc1nc(OCc2ccc(C)cc2)ncc1F` [Compound 419], the pest or weed control at 25 ppm lay within 76 to 100% under setting [9] and 76 to 100% under setting [11]. For the same compound, the pest or weed control at 100 ppm runs as follows: under setting [10], 76 to 100%; under setting [12], 76 to 100%.

`Cc1ccc(COc2ncc(F)c(NNc3ccccc3F)n2)cc1` [Compound 1039]: the pest or weed control at 25 ppm reads like this: under setting [13], 0 to 25%; under setting [14], 0 to 25%; under setting [15], 0 to 25%. Further, the pest or weed control at 100 ppm under setting [16] fell in the range of 0 to 25%.

With `COc1cccc(COc2ncc(F)c(NSc3ccccc3[N+](=O)[O-])n2)c1` [Compound 85], the pest or weed control at 25 ppm is, setting by setting: under setting [5], 26 to 50%; under setting [7], 76 to 100%. Further, the pest or weed control at 100 ppm is, setting by setting: under setting [6], 76 to 100%; under setting [8], 76 to 100%.
